Test results as given in the supplement of paper PMC10733146.

Columns and labels:
Experiment in all cases: viability relative to DMSO control (fraction); higher = less drug effect (more viable cells)
Settings in all cases: 48 h
[1] = tested on: primary ALL patient cells (S048)
Summary of the method: (§1)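 Viability was quantified by CellTiter-Glo luminescence and related to the median of 16 inner DMSO wells. Before that, primary mononuclear tumour cells, fresh or cryopreserved and Ficoll-isolated from blood or bone marrow or prepared from processed lymph node, were plated at 4 × 10^4 cells per well in 384-well plates containing pre-plated compounds at five concentrations, one well each. Plates were incubated in RPMI-1640 with penicillin/streptomycin, L-glutamine and human serum at 37 °C and 5% CO2 for 48 h.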

[2] = tested on: primary ALL patient cells (S088)
Summary of the method: as §1

[3] = tested on: primary AML patient cells (S009)
Summary of the method: as §1

[4] = tested on: primary AML patient cells (S055)
Summary of the method: as §1

[5] = tested on: primary AML patient cells (S056)
Summary of the method: as §1

[6] = tested on: primary AML patient cells (S060)
Summary of the method: as §1

[7] = tested on: primary AML patient cells (S071)
Summary of the method: as §1

[8] = tested on: primary AML patient cells (S072)
Summary of the method: as §1

[9] = tested on: primary AML patient cells (S079)
Summary of the method: as §1

[10] = tested on: primary B-PLL patient cells (S016)
Summary of the method: as §1

[11] = tested on: primary BL patient cells (S005)
Summary of the method: as §1

[12] = tested on: primary CLL patient cells (S031)
Summary of the method: as §1

[13] = tested on: primary DLBCL patient cells (S082)
Summary of the method: as §1

[14] = tested on: primary FL patient cells (S022)
Summary of the method: as §1

[15] = tested on: primary FL patient cells (S087)
Summary of the method: as §1

[16] = tested on: primary MCL patient cells (S041)
Summary of the method: as §1

[17] = tested on: primary MCL patient cells (S053)
Summary of the method: as §1

[18] = tested on: primary MCL patient cells (S063)
Summary of the method: as §1

[19] = tested on: primary MCL patient cells (S068)
Summary of the method: as §1

[20] = tested on: primary T-PLL patient cells (S008)
Summary of the method: as §1

Structure (SMILES): COc1cccc2c1C(=O)c1c(O)c3c(c(O)c1C2=O)C[C@@](O)(C(=O)CO)C[C@@H]3O[C@H]1C[C@H](N)[C@H](O)[C@H](C)O1 [Doxorubicin]
- viability ([1]; 0.0016 µM): 1.06
- viability ([1]; 0.008 µM): 1.01
- viability ([1]; 0.04 µM): 0.418
- viability ([1]; 0.2 µM): 0.0592
- viability ([1]; 1 µM): 0.0152
- viability ([2]; 0.0016 µM): 1.05
- viability ([2]; 0.008 µM): 1.02
- viability ([2]; 0.04 µM): 0.828
- viability ([2]; 0.2 µM): 0.221
- viability ([2]; 1 µM): 0.0329
- viability ([3]; 0.0016 µM): 1.07
- viability ([3]; 0.008 µM): 0.994
- viability ([3]; 0.04 µM): 0.934
- viability ([3]; 0.2 µM): 0.644
- viability ([3]; 1 µM): 0.221
- viability ([4]; 0.0016 µM): 1.02
- viability ([4]; 0.008 µM): 0.99
- viability ([4]; 0.04 µM): 1.02
- viability ([4]; 0.2 µM): 0.947
- viability ([4]; 1 µM): 0.487
- viability ([5]; 0.0016 µM): 1.02
- viability ([5]; 0.008 µM): 0.889
- viability ([5]; 0.04 µM): 0.812
- viability ([5]; 0.2 µM): 0.584
- viability ([5]; 1 µM): 0.0807
- viability ([6]; 0.0016 µM): 1.03
- viability ([6]; 0.008 µM): 1.05
- viability ([6]; 0.04 µM): 1.04
- viability ([6]; 0.2 µM): 1.16
- viability ([6]; 1 µM): 0.124
- viability ([7]; 0.0016 µM): 0.978
- viability ([7]; 0.008 µM): 0.745
- viability ([7]; 0.04 µM): 0.27
- viability ([7]; 0.2 µM): 0.116
- viability ([7]; 1 µM): 0.0761
- viability ([8]; 0.0016 µM): 1.05
- viability ([8]; 0.008 µM): 1.01
- viability ([8]; 0.04 µM): 0.947
- viability ([8]; 0.2 µM): 0.704
- viability ([8]; 1 µM): 0.162
- viability ([9]; 0.0016 µM): 1.05
- viability ([9]; 0.008 µM): 1.1
- viability ([9]; 0.04 µM): 1.03
- viability ([9]; 0.2 µM): 0.769
- viability ([9]; 1 µM): 0.244
- viability ([10]; 0.0016 µM): 1.09
- viability ([10]; 0.008 µM): 0.847
- viability ([10]; 0.04 µM): 0.175
- viability ([10]; 0.2 µM): 0.0427
- viability ([10]; 1 µM): 0.0239
- viability ([11]; 0.0016 µM): 1.03
- viability ([11]; 0.008 µM): 1.03
- viability ([11]; 0.04 µM): 0.968
- viability ([11]; 0.2 µM): 0.875
- viability ([11]; 1 µM): 0.838
- viability ([12]; 0.0016 µM): 1.14
- viability ([12]; 0.008 µM): 1.02
- viability ([12]; 0.04 µM): 0.534
- viability ([12]; 0.2 µM): 0.0601
- viability ([12]; 1 µM): 0.0158
- viability ([13]; 0.0016 µM): 1.11
- viability ([13]; 0.008 µM): 1.1
- viability ([13]; 0.04 µM): 0.945
- viability ([13]; 0.2 µM): 0.878
- viability ([13]; 1 µM): 0.0843
- viability ([14]; 0.0016 µM): 1.12
- viability ([14]; 0.008 µM): 1.17
- viability ([14]; 0.04 µM): 0.892
- viability ([14]; 0.2 µM): 0.281
- viability ([14]; 1 µM): 0.183
- viability ([15]; 0.0016 µM): 1.04
- viability ([15]; 0.008 µM): 1.03
- viability ([15]; 0.04 µM): 0.98
- viability ([15]; 0.2 µM): 0.776
- viability ([15]; 1 µM): 0.584
- viability ([16]; 0.0016 µM): 0.994
- viability ([16]; 0.008 µM): 1
- viability ([16]; 0.04 µM): 0.942
- viability ([16]; 0.2 µM): 0.488
- viability ([16]; 1 µM): 0.0259
- viability ([17]; 0.0016 µM): 0.959
- viability ([17]; 0.008 µM): 0.756
- viability ([17]; 0.04 µM): 0.448
- viability ([17]; 0.2 µM): 0.216
- viability ([17]; 1 µM): 0.299
- viability ([18]; 0.0016 µM): 1.01
- viability ([18]; 0.008 µM): 0.98
- viability ([18]; 0.04 µM): 0.997
- viability ([18]; 0.2 µM): 0.735
- viability ([18]; 1 µM): 0.0566
- viability ([19]; 0.0016 µM): 0.995
- viability ([19]; 0.008 µM): 0.978
- viability ([19]; 0.04 µM): 0.761
- viability ([19]; 0.2 µM): 0.307
- viability ([19]; 1 µM): 0.0522
- viability ([20]; 0.0016 µM): 1.04
- viability ([20]; 0.008 µM): 1.15
- viability ([20]; 0.04 µM): 0.972
- viability ([20]; 0.2 µM): 0.958
- viability ([20]; 1 µM): 0.607

Structure (SMILES): Nc1ccc2ncnc(NCCc3ccc(Oc4ccccc4)cc3)c2c1 [EVP4593]
- viability ([1]; 0.008 µM): 0.776
- viability ([1]; 0.04 µM): 0.919
- viability ([1]; 0.2 µM): 0.88
- viability ([1]; 1 µM): 0.869
- viability ([1]; 5 µM): 0.676
- viability ([2]; 0.008 µM): 0.151
- viability ([2]; 0.04 µM): 0.168
- viability ([2]; 0.2 µM): 0.147
- viability ([2]; 1 µM): 0.108
- viability ([2]; 5 µM): 0.088
- viability ([3]; 0.008 µM): 0.792
- viability ([3]; 0.04 µM): 0.705
- viability ([3]; 0.2 µM): 0.749
- viability ([3]; 1 µM): 0.636
- viability ([3]; 5 µM): 0.691
- viability ([4]; 0.008 µM): 0.913
- viability ([4]; 0.04 µM): 0.853
- viability ([4]; 0.2 µM): 0.791
- viability ([4]; 1 µM): 0.828
- viability ([4]; 5 µM): 0.828
- viability ([5]; 0.008 µM): 0.691
- viability ([5]; 0.04 µM): 0.627
- viability ([5]; 0.2 µM): 0.412
- viability ([5]; 1 µM): 0.313
- viability ([5]; 5 µM): 0.307
- viability ([6]; 0.008 µM): 1.01
- viability ([6]; 0.04 µM): 1
- viability ([6]; 0.2 µM): 0.97
- viability ([6]; 1 µM): 0.961
- viability ([6]; 5 µM): 0.966
- viability ([7]; 0.008 µM): 0.768
- viability ([7]; 0.04 µM): 0.684
- viability ([7]; 0.2 µM): 0.351
- viability ([7]; 1 µM): 0.158
- viability ([7]; 5 µM): 0.121
- viability ([8]; 0.008 µM): 0.844
- viability ([8]; 0.04 µM): 0.823
- viability ([8]; 0.2 µM): 0.772
- viability ([8]; 1 µM): 0.637
- viability ([8]; 5 µM): 0.652
- viability ([9]; 0.008 µM): 0.818
- viability ([9]; 0.04 µM): 0.84
- viability ([9]; 0.2 µM): 0.806
- viability ([9]; 1 µM): 0.675
- viability ([9]; 5 µM): 0.646
- viability ([10]; 0.008 µM): 0.929
- viability ([10]; 0.04 µM): 0.874
- viability ([10]; 0.2 µM): 0.8
- viability ([10]; 1 µM): 0.716
- viability ([10]; 5 µM): 0.713
- viability ([11]; 0.008 µM): 1.01
- viability ([11]; 0.04 µM): 0.939
- viability ([11]; 0.2 µM): 0.811
- viability ([11]; 1 µM): 0.73
- viability ([11]; 5 µM): 0.716
- viability ([12]; 0.008 µM): 0.884
- viability ([12]; 0.04 µM): 0.854
- viability ([12]; 0.2 µM): 0.803
- viability ([12]; 1 µM): 0.686
- viability ([12]; 5 µM): 0.601
- viability ([13]; 0.008 µM): 0.83
- viability ([13]; 0.04 µM): 0.736
- viability ([13]; 0.2 µM): 0.588
- viability ([13]; 1 µM): 0.462
- viability ([13]; 5 µM): 0.452
- viability ([14]; 0.008 µM): 0.911
- viability ([14]; 0.04 µM): 0.871
- viability ([14]; 0.2 µM): 0.805
- viability ([14]; 1 µM): 0.816
- viability ([14]; 5 µM): 0.825
- viability ([15]; 0.008 µM): 0.933
- viability ([15]; 0.04 µM): 0.915
- viability ([15]; 0.2 µM): 0.862
- viability ([15]; 1 µM): 0.811
- viability ([15]; 5 µM): 0.79
- viability ([16]; 0.008 µM): 0.902
- viability ([16]; 0.04 µM): 0.93
- viability ([16]; 0.2 µM): 0.873
- viability ([16]; 1 µM): 0.716
- viability ([16]; 5 µM): 0.729
- viability ([17]; 0.008 µM): 0.876
- viability ([17]; 0.04 µM): 0.875
- viability ([17]; 0.2 µM): 0.821
- viability ([17]; 1 µM): 0.672
- viability ([17]; 5 µM): 0.642
- viability ([18]; 0.008 µM): 0.934
- viability ([18]; 0.04 µM): 0.945
- viability ([18]; 0.2 µM): 0.924
- viability ([18]; 1 µM): 0.874
- viability ([18]; 5 µM): 0.866
- viability ([19]; 0.008 µM): 0.844
- viability ([19]; 0.04 µM): 0.766
- viability ([19]; 0.2 µM): 0.741
- viability ([19]; 1 µM): 0.683
- viability ([19]; 5 µM): 0.676
- viability ([20]; 0.008 µM): 0.997
- viability ([20]; 0.04 µM): 0.971
- viability ([20]; 0.2 µM): 0.894
- viability ([20]; 1 µM): 0.861
- viability ([20]; 5 µM): 0.868
